Patent US20220162188A1, “ISOPRENOIDS AND METHODS OF MAKING THEREOF” (NORTH CAROLINA STATE UNIVERSITY, priority 2019, published 2022)
Entries after “also recorded” stand apart in the source; their conditions may differ.

How the values were obtained:
IspA S81F = IspA S81F (Escherichia coli, UniProt P22939, S80F); format: biochemical; conditions: DMAPP as starter unit
IspA Y80D = IspA Y80D (Escherichia coli, UniProt P22939, Y79D); format: biochemical; conditions: DMAPP as starter unit
[1] = molecular target: IspA, a farnesyl diphosphate synthase (FPPase) (Escherichia coli, UniProt P22939); conditions: wild-type IspA
[2] = molecular target: T1, isopentenyl phosphate kinase (IPK) (Thermoplasma acidophilum, UniProt Q9HLX1); assay: NADH-coupled kinetic assay of IPK; conditions: IPK with monophosphorylated substrate, ± SD of the mean
T1 sequence (Q9HLX1 1-245): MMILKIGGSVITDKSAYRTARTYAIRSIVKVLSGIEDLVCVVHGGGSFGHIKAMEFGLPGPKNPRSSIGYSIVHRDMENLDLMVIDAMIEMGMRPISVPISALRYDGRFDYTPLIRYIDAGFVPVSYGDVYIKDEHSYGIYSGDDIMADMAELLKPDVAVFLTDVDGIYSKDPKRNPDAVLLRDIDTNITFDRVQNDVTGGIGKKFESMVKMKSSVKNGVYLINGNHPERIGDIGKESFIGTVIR
Protocol: The data was fitted to the Michaelis-Menten equation using SigmaPlot, and the kinetic parameters (kcat, Km, kcat/Km) extracted.
NADH-Coupled Kinetic Assays. NADH coupled assays were performed with purified enzymes. Reaction progress was monitored by absorbance at 340 nm at 30° C. in a 96-well plate using a Biotek Synergy 4 plate reader (Winooski, Vt.). 200 μL enzymatic mixtures contained 50 mM Tris (pH 8.0), 25 mM KCl, 2.5 mM MgCl2, 0.05 mM DTT, 1 mM ATP, 320 μM NADH, 400 μM phosphoenolpyruvate, 0.5 U pyruvate kinase, 0.7 U lactate dehydrogenase, and various amounts of substrate. Conditions were verified by doubling enzyme and verifying the initial rate was doubled as well.
Kinetics of IPK were done with purified enzyme using 0.09 μg of enzyme per well. Serial dilution was used to generate specific concentrations of substrates (3125, 1562, 781, 625, 391, 195, 98, 24, 12, and 3 μM). Each condition was performed in triplicate. Nonlinear regression was fitted using SigmaPlot (Systat Software Inc., San Jose, Calif., USA).

Sequence of IspA, a farnesyl diphosphate synthase (FPPase) (P22939 whole entry): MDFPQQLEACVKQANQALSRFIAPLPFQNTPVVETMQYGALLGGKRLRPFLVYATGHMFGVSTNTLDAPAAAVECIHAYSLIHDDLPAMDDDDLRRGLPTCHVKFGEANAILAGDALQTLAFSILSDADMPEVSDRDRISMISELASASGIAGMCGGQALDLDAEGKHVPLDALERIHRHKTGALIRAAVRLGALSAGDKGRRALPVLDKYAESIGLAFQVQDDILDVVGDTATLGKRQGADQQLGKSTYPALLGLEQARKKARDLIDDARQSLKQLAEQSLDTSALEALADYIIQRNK
Sequence of IspA S81F (P22939 whole entry S80F): as the sequence (P22939 whole entry) above, with S80F counted along it
Sequence of IspA Y80D (P22939 whole entry Y79D): as the sequence (P22939 whole entry) above, with Y79D counted along it

With `CCC/C=C/COP(=O)(O)O` [Substrate 29] the “use as extender unit in place of IPP (conversion by LC-MS), words” value (IspA S81F) was “most efficient analogues”, the “use as extender unit in place of IPP (conversion by LC-MS), words” value (IspA Y80D) was “most efficient analogues” and the “use as extender unit in place of IPP (GPP analogue by LC-MS), words” value ([1]; DMAPP as starter unit) was “accepted by IspA; also recorded: most efficient analogues”. The “use as extender unit in place of IPP (FPP analogue by LC-MS), words” value ([1]; GPP as starter unit) was “almost as good as that with IPP; also recorded: accepted by IspA”, the kcat [2] was 43.0 ± 17.8 s⁻¹ and the Km ([2]; 1 mM ATP, 30° C.) was 6.83 ± 3.77 mM.
